Experimental data published in patent publication US20250230193A1, “CYCLIC COMPOUND HAVING SELECTIVE KRAS INHIBITORY EFFECT ON HRAS AND NRAS” (CHUGAI SEIYAKU KABUSHIKI KAISHA, priority 2022, published 2025).
Where a SMILES comes first, the peptide text is derived from it. Bridges are numbered along the chain shown (N, C = ends). [ ]: non-standard residue; d: D form. The star is where a group is joined. hPhe(3-Cl-4-CF3) = N[C@@H](CCc1ccc(C(F)(F)F)c(Cl)c1)C(=O)O; NPrPhe(4-CF3) = CCCN[C@@H](Cc1ccc(C(F)(F)F)cc1)C(=O)O; NMeGly(cPent) = CN[C@H](C(=O)O)C1CCCC1; NMeI = CC[C@H](C)[C@H](NC)C(=O)O; NMeD = CN[C@@H](CC(=O)O)C(=O)O; NMeL = CN[C@@H](CC(C)C)C(=O)O; Morpholide = C1CN(*)CCO1; NMeA = CN[C@@H](C)C(=O)O; Ac5c = NC1(C(=O)O)CCCC1; Ac4c = NC1(C(=O)O)CCC1; Sar = CNCC(=O)O

Key:
[1] = target: GDP-bound NRAS wild-type protein (Homo sapiens, UniProt P01111); test: Binding to NRAS by surface plasmon resonance (SPR), Single Cycle Kinetics; settings: for NRAS/KRAS (ratio of KD value with respect to NRAS to KD value with respect to KRAS) / NRAS/KRAS (ratio of KD value for NRAS to KD value for KRAS): GDP-bound NRAS wild-type vs GDP-bound KRAS wild-type
Chain of GDP-bound NRAS wild-type protein (P01111 whole entry): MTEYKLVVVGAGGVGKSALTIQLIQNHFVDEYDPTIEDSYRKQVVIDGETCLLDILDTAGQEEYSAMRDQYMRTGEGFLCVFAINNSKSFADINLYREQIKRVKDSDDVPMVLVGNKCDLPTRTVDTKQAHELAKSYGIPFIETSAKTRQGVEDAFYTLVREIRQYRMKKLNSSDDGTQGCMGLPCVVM

[2] = target: GDP-bound HRAS wild-type protein (Homo sapiens, UniProt P01112); test: Binding to HRAS by surface plasmon resonance (SPR), Single Cycle Kinetics; settings: for HRAS/KRAS (ratio of KD value with respect to HRAS to KD value with respect to KRAS) / HRAS/KRAS (ratio of KD value for HRAS to KD value for KRAS): GDP-bound HRAS wild-type vs GDP-bound KRAS wild-type
Chain of GDP-bound HRAS wild-type protein (P01112 whole entry): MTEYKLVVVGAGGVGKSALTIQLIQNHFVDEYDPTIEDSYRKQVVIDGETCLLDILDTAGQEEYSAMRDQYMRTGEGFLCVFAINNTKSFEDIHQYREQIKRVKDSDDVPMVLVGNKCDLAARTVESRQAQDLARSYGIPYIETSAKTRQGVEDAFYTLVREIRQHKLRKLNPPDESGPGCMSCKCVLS

For CCO[C@@H]1C[C@H]2C(=O)NC3(CCC3)C(=O)N(C)[C@@H](C3CCCC3)C(=O)N(C)[C@H](C(=O)N(C)C)CC(=O)N(C)[C@@H](CC(F)F)C(=O)N[C@@H]([C@@H](C)CC)C(=O)N(C)CC(=O)N(C)[C@H]3CCCCCN(C3=O)[C@@H](Cc3ccc(F)cc3)C(=O)N(C)CC(=O)N[C@@H](CCc3cc(F)c(C(F)(F)F)c(F)c3)C(=O)N2C1 [PP1191], the “NRAS/KRAS (ratio of KD value with respect to NRAS to KD value with respect to KRAS)” value ([1]; KD ratio, SPR) was “A (a compound having 10 or more and less than 20 is denoted as A)” and the “HRAS/KRAS (ratio of KD value with respect to HRAS to KD value with respect to KRAS)” value ([2]; KD ratio, SPR) was “B (a compound having 3 or more and less than 10 is denoted as B)”.

With CCCN1C(=O)CN(C)C(=O)CN(C)C(=O)[C@H]([C@@H](C)CC)NC(=O)[C@H](CC(C)C)N(C)C(=O)C[C@@H](C(=O)N2CCOCC2)N(C)C(=O)[C@H](C2CCCC2)N(C)C(=O)C2(CCC2)NC(=O)[C@H](C)N(C)C(=O)[C@H](CCc2ccc(C(F)(F)F)c(Cl)c2)NC(=O)CN(C)C(=O)[C@@H]1Cc1ccc(C(F)(F)F)cc1 [PP1916] ([NMeL]I[Sar][Sar][NPrPhe(4-CF3)][Sar][hPhe(3-Cl-4-CF3)][NMeA][Ac4c][NMeGly(cPent)][NMeD]-Morpholide; lactam N-11) the “NRAS/KRAS (ratio of KD value for NRAS to KD value for KRAS)” value ([1]; KD ratio, SPR) was “B (a compound having 3 or more and less than 10 is denoted as B)” and the “HRAS/KRAS (ratio of KD value for HRAS to KD value for KRAS)” value ([2]; KD ratio, SPR) was “C (A compound having a KD ratio of 0.1 or more and less than 3 is denoted as C)”.

CCCN1C(=O)CN(C)C(=O)CN(C)C(=O)[C@H]([C@@H](C)CC)NC(=O)[C@H](CC(C)C)N(C)C(=O)C[C@@H](C(=O)N2CCOCC2)N(C)C(=O)[C@H]([C@@H](C)CC)N(C)C(=O)C2(CCCC2)NC(=O)[C@@H]2CCCN2C(=O)[C@H](CCc2ccc(C(F)(F)F)c(Cl)c2)NC(=O)CN(C)C(=O)[C@@H]1Cc1ccc(C(F)(F)F)cc1 [PP1926] ([NMeL]I[Sar][Sar][NPrPhe(4-CF3)][Sar][hPhe(3-Cl-4-CF3)]P[Ac5c][NMeI][NMeD]-Morpholide; lactam N-11) was tested, and the “NRAS/KRAS (ratio of KD value for NRAS to KD value for KRAS)” value ([1]; KD ratio, SPR) was “B (a compound having 3 or more and less than 10 is denoted as B)” and the “HRAS/KRAS (ratio of KD value for HRAS to KD value for KRAS)” value ([2]; KD ratio, SPR) was “B (a compound having 3 or more and less than 10 is denoted as B)”.

CCO[C@@H]1C[C@H]2C(=O)NC3(CC(C)(C)C3)C(=O)N(C)[C@@H](C3CCCC3)C(=O)N(C)[C@H](C(=O)N(C)C)CC(=O)N(C)[C@@H](CC3CC3)C(=O)N[C@@H]([C@@H](C)CC)C(=O)N(C)CC(=O)N(C)[C@H]3C/C=C\CCN(C3=O)[C@@H](Cc3ccc(C(F)(F)F)cc3)C(=O)N(C)CC(=O)N[C@@H](CCc3ccc(C(F)(F)F)c(Cl)c3)C(=O)N2C1 [PP1749] was tested, and the “NRAS/KRAS (ratio of KD value for NRAS to KD value for KRAS)” value ([1]; KD ratio, SPR) was “A (a compound having 10 or more and less than 20 is denoted as A)” and the “HRAS/KRAS (ratio of KD value for HRAS to KD value for KRAS)” value ([2]; KD ratio, SPR) was “A (a compound having 10 or more and less than 20 is denoted as A)”.

With CCC[C@H]1C(=O)N[C@@H]([C@@H](C)CC)C(=O)N(C)CC(=O)N(C)[C@H]2C/C=C\CCN(C2=O)[C@@H](Cc2ccc(C)cc2)C(=O)N(C)CC(=O)N[C@@H](CCc2ccc(Cl)c(C(F)(F)F)c2)C(=O)N2C[C@H](OCC)C[C@H]2C(=O)NC2(CC(C)(C)C2)C(=O)N(C)[C@@H](C(CC)CC)C(=O)N(C)[C@H](C(=O)N(C)C)CC(=O)N1C [PP2787] the “NRAS/KRAS (ratio of KD value with respect to GDP-bound NRAS wild-type protein to KD value with respect to KRAS)” value ([1]; class symbols) was “AA (a compound having 20 or more is denoted as AA)” and the “HRAS/KRAS (ratio of KD value with respect to GDP-bound HRAS wild-type protein to KD value with respect to KRAS)” value ([2]; class symbols) was “A (a compound having 10 or more and less than 20 is denoted as A)”.

In the case of CCO[C@@H]1C[C@H]2C(=O)NC3(CCC3)C(=O)N(C)[C@@H](C3CCCC3)C(=O)N(C)[C@H](C(=O)N(C)C)CC(=O)N(C)[C@@H](CC3CCC3)C(=O)N[C@@H]([C@@H](C)CC)C(=O)N(C)CC(=O)N(C)[C@H]3CCCCCN(C3=O)[C@@H](Cc3ccc(C(F)(F)F)cc3)C(=O)N(C)CC(=O)N[C@@H](CCc3cc(F)c(C(F)(F)F)c(F)c3)C(=O)N2C1 [PP0668], the “NRAS/KRAS (ratio of KD value with respect to GDP-bound NRAS wild-type protein to KD value with respect to KRAS)” value ([1]; SPR) is reported as “B (a compound having 3 or more and less than 10 is denoted as B)” and the “HRAS/KRAS (ratio of KD value with respect to GDP-bound HRAS wild-type protein to KD value with respect to KRAS)” value ([2]; SPR) is reported as “B (a compound having 3 or more and less than 10 is denoted as B)”.

CC[C@H](C)[C@@H]1NC(=O)[C@H](CC(C)C)N(C)C(=O)C[C@@H](C(=O)N2CCOCC2)N(C)C(=O)[C@H](C2CCCC2)N(C)C(=O)C2(CCCC2)NC(=O)[C@@H]2CC(F)(F)CN2C(=O)[C@H](CCc2ccc(C(F)(F)F)c(Cl)c2)NC(=O)CN(C)C(=O)[C@H](Cc2ccc(F)cc2)N2CCCCC[C@@H](C2=O)N(C)C(=O)CN(C)C1=O [PP0966] was tested, and the “NRAS/KRAS (ratio of KD value with respect to NRAS to KD value with respect to KRAS)” value ([1]; KD ratio, SPR) was “B (a compound having 3 or more and less than 10 is denoted as B)” and the “HRAS/KRAS (ratio of KD value with respect to HRAS to KD value with respect to KRAS)” value ([2]; KD ratio, SPR) was “B (a compound having 3 or more and less than 10 is denoted as B)”.

For CC[C@@H]1C[C@H]2C(=O)NC3(CCC3)C(=O)N(C)[C@@H](C3CCCC3)C(=O)N(C)[C@H](C(=O)N(C)C)CC(=O)N(C)[C@@H](CC(C)C)C(=O)N[C@@H]([C@@H](C)CC)C(=O)N(C)CC(=O)N(C)[C@H]3C/C=C\CCN(C3=O)[C@@H](Cc3ccc(C)cc3)C(=O)N(C)CC(=O)N[C@@H](CCc3cc(F)c(C(F)(F)F)c(F)c3)C(=O)N2C1 [PP2220], the “NRAS/KRAS (ratio of KD value with respect to NRAS to KD value with respect to KRAS)” value ([1]; SPR) was “A (a compound having 10 or more and less than 20 is denoted as A)” and the “HRAS/KRAS (ratio of KD value with respect to HRAS to KD value with respect to KRAS)” value ([2]; SPR) was “A (a compound having 10 or more and less than 20 is denoted as A)”.

With CC[C@H](C)[C@@H]1NC(=O)[C@H](COC)N(C)C(=O)C[C@@H](C(=O)N(C)C)N(C)C(=O)[C@H](C2CCCC2)N(C)C(=O)C2(CC(C)(C)C2)NC(=O)[C@@H]2C[C@@H](C)CN2C(=O)[C@H](CCc2ccc(C(F)(F)F)c(OC)c2)NC(=O)CN(C)C(=O)[C@H](Cc2ccc(C)cc2)N2CC/C=C\C[C@@H](C2=O)N(C)C(=O)CN(C)C1=O [PP2387] the “NRAS/KRAS (ratio of KD value with respect to NRAS to KD value with respect to KRAS)” value ([1]; SPR) was “A (a compound having 10 or more and less than 20 is denoted as A)” and the “HRAS/KRAS (ratio of KD value with respect to HRAS to KD value with respect to KRAS)” value ([2]; SPR) was “A (a compound having 10 or more and less than 20 is denoted as A)”.

CCC[C@H]1C(=O)N[C@@H]([C@@H](C)CC)C(=O)N(C2CC2)CC(=O)N(C)[C@H]2C/C=C\CCN(C2=O)[C@@H](Cc2ccc(C(F)(F)F)cc2)C(=O)N(C)CC(=O)N[C@@H](CCc2cc(F)c(C(F)(F)F)c(F)c2)C(=O)N2C[C@H](OCC)C[C@H]2C(=O)NC2(CC(C)(C)C2)C(=O)N(C)[C@@H](CC2CCC2)C(=O)N(C)[C@H](C(=O)N(C)C)CC(=O)N1C [PP2768] was tested, and the “NRAS/KRAS (ratio of KD value with respect to GDP-bound NRAS wild-type protein to KD value with respect to KRAS)” value ([1]; class symbols) was “A (a compound having 10 or more and less than 20 is denoted as A)” and the “HRAS/KRAS (ratio of KD value with respect to GDP-bound HRAS wild-type protein to KD value with respect to KRAS)” value ([2]; class symbols) was “A (a compound having 10 or more and less than 20 is denoted as A)”.

CC[C@H](C)[C@@H]1NC(=O)[C@H](CC2CC2)N(C)C(=O)C[C@@H](C(=O)N(C)C)N(C)C(=O)[C@H](C2CCCC2)N(C)C(=O)C2(CCC2)NC(=O)[C@@H]2C[C@@H](C)CN2C(=O)[C@H](CCc2ccc(C(F)(F)F)c(OC)c2)NC(=O)CN(C)C(=O)[C@H](Cc2ccc(C)cc2)N2CC/C=C\C[C@@H](C2=O)N(C)C(=O)CN(C)C1=O [PP1863] was tested, and the “NRAS/KRAS (ratio of KD value for NRAS to KD value for KRAS)” value ([1]; KD ratio, SPR) was “A (a compound having 10 or more and less than 20 is denoted as A)” and the “HRAS/KRAS (ratio of KD value for HRAS to KD value for KRAS)” value ([2]; KD ratio, SPR) was “A (a compound having 10 or more and less than 20 is denoted as A)”.
